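Each compound was tested at five concentrations against cells in 96-well plates for 48 hours. GI50 marks 50% less growth. Definition used: TGI = concentration required for complete inhibition of growth.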
Columns and labels:
Assay in all cases: NCI tumour cell line growth inhibition, 48 h
[1] = tested on: 786-0 renal
[2] = tested on: A498 renal
[3] = tested on: A549 NSCLC
[4] = tested on: ACHN renal
[5] = tested on: BT-549 breast
[6] = tested on: CAKI-1 renal
[7] = tested on: CCRF-CEM leukemia
[8] = tested on: COLO 205 colon
[9] = tested on: DU-145 prostate
[10] = tested on: EKVX NSCLC
[11] = tested on: HCC-2998 colon
[12] = tested on: HCT-116 colon
[13] = tested on: HCT-15 colon
[14] = tested on: HL-60(TB) leukemia
[15] = tested on: HOP-62 NSCLC
[16] = tested on: HOP-92 NSCLC
[17] = tested on: HS 578T breast
[18] = tested on: HT29 colon
[19] = tested on: IGROV1 ovarian
[20] = tested on: K-562 leukemia
[21] = tested on: KM12 colon
[22] = tested on: LOX IMVI melanoma
[23] = tested on: M14 melanoma
[24] = tested on: MALME-3M melanoma
[25] = tested on: MCF7 breast
[26] = tested on: MDA-MB-231 breast
[27] = tested on: MDA-MB-435
[28] = tested on: MDA-MB-468 breast
[29] = tested on: MOLT-4 leukemia
[30] = tested on: NCI-H226 lung
[31] = tested on: NCI-H23 lung
[32] = tested on: NCI-H460 lung
[33] = tested on: NCI-H522 lung
[34] = tested on: NCI/ADR-RES ovarian
[35] = tested on: OVCAR-3 ovarian
[36] = tested on: OVCAR-4 ovarian
[37] = tested on: OVCAR-5 ovarian
[38] = tested on: OVCAR-8 ovarian
[39] = tested on: PC-3 prostate
[40] = tested on: RPMI-8226 leukemia
[41] = tested on: RXF 393 renal
[42] = tested on: SF-268 CNS
[43] = tested on: SF-295 CNS
[44] = tested on: SF-539 CNS
[45] = tested on: SK-MEL-2 melanoma
[46] = tested on: SK-MEL-28 melanoma
[47] = tested on: SK-MEL-5 melanoma
[48] = tested on: SK-OV-3 ovarian
[49] = tested on: SN12C renal
[50] = tested on: SNB-19 CNS
[51] = tested on: SNB-75 CNS
[52] = tested on: SR leukemia
[53] = tested on: SW-620 colon
[54] = tested on: T-47D breast
[55] = tested on: TK-10 renal
[56] = tested on: U251 CNS
[57] = tested on: UACC-257 melanoma
[58] = tested on: UACC-62 melanoma
[59] = tested on: UO-31 renal

`O=C(NNc1nc2cc(C(F)(F)F)ccc2n2cccc12)c1cnccn1` was tested, and the GI50 [1] was 365 nM, the TGI [1] was 1690 nM and the GI50 [2] was 1620 nM. It also gave a TGI [2] of 3340 nM, a GI50 [3] of 424 nM and a TGI [3] of 8910 nM. For the same molecule, the GI50 [4] was 217 nM, the TGI [4] was 1450 nM and the GI50 [5] was 1060 nM. It also gave a TGI [5] of 3410 nM, a GI50 [6] of 299 nM and a TGI [6] of 1660 nM. For the same molecule, the GI50 [7] was 141 nM, the TGI [7] was 1950 nM and the GI50 [8] was 364 nM. It also gave a TGI [8] of 1480 nM, a GI50 [9] of 526 nM and a TGI [9] of 2440 nM. For the same molecule, the GI50 [10] was 176 nM, the TGI [10] was 1230 nM and the GI50 [11] was 463 nM. It also gave a TGI [11] of 2030 nM, a GI50 [12] of 182 nM and a TGI [12] of 1320 nM. The GI50 [13] was 89.1 nM, the TGI [13] was 1550 nM and the GI50 [14] was 166 nM. The TGI [14] was 1690 nM, the GI50 [15] was 214 nM and the TGI [15] was 1920 nM. It also gave a GI50 [16] of 330 nM, a TGI [16] of 2200 nM and a GI50 [17] of 1500 nM. The TGI [17] was 10700 nM, the GI50 [18] was 553 nM and the TGI [18] was 2310 nM. The GI50 [19] was 146 nM, the TGI [19] was 1600 nM and the GI50 [20] was 356 nM. For the same molecule, the GI50 [21] was 341 nM, the TGI [21] was 2060 nM and the GI50 [22] was 128 nM. For the same molecule, the TGI [22] was 1300 nM, the GI50 [23] was 250 nM and the TGI [23] was 1370 nM. It also gave a GI50 [24] of 1140 nM, a TGI [24] of 2550 nM and a GI50 [25] of 293 nM. For the same molecule, the TGI [25] was 1500 nM, the GI50 [26] was 438 nM and the TGI [26] was 1940 nM. It also gave a GI50 [27] of 807 nM, a TGI [27] of 2710 nM and a GI50 [28] of 190 nM. It also gave a TGI [28] of 661 nM, a GI50 [29] of 235 nM and a TGI [29] of 5060 nM. For the same molecule, the GI50 [30] was 772 nM, the TGI [30] was 3900 nM and the GI50 [31] was 517 nM. The TGI [31] was 2030 nM, the GI50 [32] was 116 nM and the TGI [32] was 5580 nM. The GI50 [33] was 248 nM, the TGI [33] was 944 nM and the GI50 [34] was 255 nM. For the same molecule, the TGI [34] was 1480 nM, the GI50 [35] was 287 nM and the TGI [35] was 1580 nM. For the same molecule, the GI50 [36] was 266 nM, the TGI [36] was 2270 nM and the GI50 [37] was 776 nM. The TGI [37] was 2490 nM, the GI50 [38] was 365 nM and the TGI [38] was 2380 nM. It also gave a GI50 [39] of 325 nM, a TGI [39] of 2190 nM and a GI50 [40] of 290 nM. The TGI [40] was 3450 nM, the GI50 [41] was 1050 nM and the TGI [41] was 2310 nM. For the same molecule, the GI50 [42] was 357 nM, the TGI [42] was 3900 nM and the GI50 [43] was 134 nM. The TGI [43] was 1590 nM, the GI50 [44] was 406 nM and the TGI [44] was 1980 nM. The GI50 [45] was 475 nM, the TGI [45] was 1730 nM and the GI50 [46] was 478 nM. It also gave a TGI [46] of 2090 nM, a GI50 [47] of 602 nM and a TGI [47] of 1960 nM. It also gave a GI50 [48] of 477 nM, a TGI [48] of 1860 nM and a GI50 [49] of 411 nM. For the same molecule, the TGI [49] was 2070 nM, the GI50 [50] was 437 nM and the TGI [50] was 2540 nM. For the same molecule, the GI50 [51] was 1010 nM, the TGI [51] was 2880 nM and the GI50 [52] was 46.9 nM. For the same molecule, the TGI [52] was 1200 nM, the GI50 [53] was 422 nM and the TGI [53] was 2470 nM. It also gave a GI50 [54] of 292 nM, a TGI [54] of 1720 nM and a GI50 [55] of 452 nM. The TGI [55] was 1770 nM, the GI50 [56] was 199 nM and the TGI [56] was 2210 nM. It also gave a GI50 [57] of 501 nM, a TGI [57] of 1940 nM and a GI50 [58] of 302 nM. The TGI [58] was 1570 nM, the GI50 [59] was 83.2 nM and the TGI [59] was 1570 nM.
Molecule `CC(=C(c1ccc(OCCN2CCCCC2)cc1)c1ccc(OCCN2CCCCC2)cc1)c1ccccc1` has a GI50 [1] of 3390 nM, a TGI [1] of 6910 nM and a GI50 [2] of over 21800 nM. For the same molecule, the TGI [2] was over 21800 nM, the GI50 [3] was 5910 nM and the TGI [3] was over 21800 nM. For the same molecule, the GI50 [4] was 5200 nM, the TGI [4] was 17200 nM and the GI50 [5] was over 21800 nM. For the same molecule, the TGI [5] was over 21800 nM, the GI50 [6] was 5010 nM and the TGI [6] was over 21800 nM. For the same molecule, the GI50 [7] was 5200 nM, the TGI [7] was 21700 nM and the GI50 [8] was 3530 nM. It also gave a TGI [8] of 7610 nM, a GI50 [9] of 12400 nM and a TGI [9] of over 21800 nM. The GI50 [10] was over 21800 nM, the TGI [10] was over 21800 nM and the GI50 [11] was 4700 nM. It also gave a TGI [11] of 21000 nM, a GI50 [12] of 3430 nM and a TGI [12] of 10100 nM. The GI50 [13] was 4980 nM, the TGI [13] was over 21800 nM and the GI50 [14] was 2670 nM. It also gave a TGI [14] of 7090 nM, a GI50 [15] of 6450 nM and a TGI [15] of over 21800 nM. The GI50 [16] was 5010 nM, the TGI [16] was over 21800 nM and the GI50 [17] was 3330 nM. The TGI [17] was 10900 nM, the GI50 [18] was 3770 nM and the TGI [18] was 11700 nM. It also gave a GI50 [19] of 9780 nM, a TGI [19] of over 21800 nM and a GI50 [20] of 3260 nM. The TGI [20] was over 21800 nM, the GI50 [21] was 8170 nM and the TGI [21] was over 21800 nM. The GI50 [22] was 3480 nM, the TGI [22] was 6590 nM and the GI50 [23] was 3950 nM. For the same molecule, the TGI [23] was 8320 nM, the GI50 [24] was 3380 nM and the TGI [24] was 6310 nM. For the same molecule, the GI50 [25] was 625 nM, the TGI [25] was 4980 nM and the GI50 [26] was 4000 nM. It also gave a TGI [26] of 9170 nM, a GI50 [27] of 3250 nM and a TGI [27] of 6880 nM. For the same molecule, the GI50 [28] was 3790 nM, the TGI [28] was 9450 nM and the GI50 [29] was 4150 nM. For the same molecule, the TGI [29] was 12900 nM, the GI50 [30] was over 21800 nM and the TGI [30] was over 21800 nM. It also gave a GI50 [31] of 12500 nM, a TGI [31] of over 21800 nM and a GI50 [32] of 4100 nM. It also gave a TGI [32] of 9980 nM, a GI50 [33] of 3260 nM and a TGI [33] of 7850 nM. For the same molecule, the GI50 [34] was 12100 nM, the TGI [34] was over 21800 nM and the GI50 [35] was 3840 nM. For the same molecule, the TGI [35] was 17200 nM, the GI50 [36] was 7660 nM and the TGI [36] was over 21800 nM. It also gave a GI50 [37] of 11700 nM, a TGI [37] of over 21800 nM and a GI50 [38] of over 21800 nM. The TGI [38] was over 21800 nM, the GI50 [39] was 8190 nM and the TGI [39] was over 21800 nM. It also gave a GI50 [40] of 6540 nM, a TGI [40] of over 21800 nM and a GI50 [41] of 3210 nM. The TGI [41] was 10400 nM, the GI50 [42] was 5560 nM and the TGI [42] was over 21800 nM. For the same molecule, the GI50 [43] was 3520 nM, the TGI [43] was 7170 nM and the GI50 [44] was 3390 nM. For the same molecule, the TGI [44] was 6390 nM, the GI50 [45] was 3850 nM and the TGI [45] was 7720 nM. It also gave a GI50 [46] of 3620 nM, a TGI [46] of 6680 nM and a GI50 [47] of 3640 nM. It also gave a TGI [47] of 6870 nM, a GI50 [48] of over 21800 nM and a TGI [48] of over 21800 nM. The GI50 [49] was over 21800 nM, the TGI [49] was over 21800 nM and the GI50 [50] was 6880 nM. For the same molecule, the TGI [50] was over 21800 nM, the GI50 [51] was 3790 nM and the TGI [51] was over 21800 nM. For the same molecule, the GI50 [52] was 3680 nM, the TGI [52] was 11500 nM and the GI50 [53] was 2950 nM. For the same molecule, the TGI [53] was 6860 nM, the GI50 [54] was 2550 nM and the TGI [54] was 6600 nM. It also gave a GI50 [55] of 16700 nM, a TGI [55] of over 21800 nM and a GI50 [56] of 3760 nM. The TGI [56] was 8510 nM, the GI50 [57] was 3180 nM and the TGI [57] was 6300 nM. For the same molecule, the GI50 [58] was 3640 nM, the TGI [58] was 6830 nM and the GI50 [59] was 3820 nM. For the same molecule, the TGI [59] was 10400 nM.
